Where two headings read alike, the source gives them in different places. Starred links: 1 amine or outer side, 2 acyl side, 3 side chain; linkers in the order of their positions; H or OH if unused. Non-standard residues stand in square brackets, D forms with d. Residues, ends and D or L forms follow the SMILES beside them. ξ: configuration not given here. *: point of attachment. NH(1S-phenylethyl) = C[C@H](N*)c1ccccc1; Hyp = O=C(O)[C@@H]1C[C@@H](O)CN1; azaNva = CCCN(N[*:1])C(=O)[*:2]; AzaAla = CN(N[*:1])C(=O)[*:2]; X7 = CCCCCN(N[*:1])C(=O)[*:2]; X2 = CCCN(N*)C(=O)OCc1ccccc1; X5 = CCCN(N*)C(=O)CCc1ccccc1; X6 = CCCC(N*)C(=O)CCc1ccccc1; Nva = CCC[C@H](N)C(=O)O; ξNva = CCCC(N)C(=O)O; ξAbu = CCC(N)C(=O)O; Bn = c1ccc(C*)cc1; CF3 = FC(F)(F)*
Tests used:
[1] = target: T1, HCV NS3 protease type 1b/NS4A cofactor peptide (Hepatitis C virus genotype 1b, UniProt P26663); assay: biochemical; parameters: species or system hepatitis C virus (HCV) genotype 1b
T1 construct: recombinant HCV NS3 protease (amino acid 1027 to 1206) was cloned; made in house; host or cells: E. coli BL21(DE3)pLysS
Source text: a) Cloning, expression and purification of the recombinant HCV NS3 protease type lb
Serum from an HCV-infected patient was obtained through an external collaboration (Bernard Willems MD, Hopital St-Luc, Montreal, Canada and Dr. Donald Murphy, Laboratoire de Sante Publique du Quebec, Ste-Anne de Bellevue, Canada). An engineered full-length cDNA template of the HCV genome was constructed from DNA fragments obtained by reverse transcription-PCR (RT-PCR) of serum RNA and using specific primers selected on the basis of homology between other genotype lb strains. […] A DNA fragment encoding the polyprotein precursor (NS3/NS4A/NS4B/NS5A/NS5B) was generated by PCR and introduced into eucaryotic expression vectors.
The NS3 protease expression in E. coli BL21(DE3)pLysS was induced by incubation with 1 mM IPTG for 3 h at 22° C. […] The cells were resuspended in lysis buffer (3.0 mL/g) consisting of 25 mM sodium phosphate, pH 7.5, 10% glycerol (v/v), 1 mM EDTA, 0.01% NP-40 and stored at -80° C. Cells were thawed and homogenized following the addition of 5 mM DTT. Magnesium chloride and DNase were then added to the homogenate at final concentrations of 20 mM and 20 μg/mL respectively. After a 25 min incubation at 4° C., the homogenate was sonicated and centrifuged at 15000× g for 30 min at 4° C. The pH of the supernatant was then adjusted to 6.5 using a 1M sodium phosphate solution.
Briefly, the supernatant from the bacterial extract was loaded on a SP HiTrap column (Pharmacia) previously equilibrated at a flow rate of 2 mL/min in buffer A (50 mM sodium phosphate, pH 6.5, 10% glycerol, 1 mM EDTA, 5 mM DTT, 0.01% NP-40). The column was then washed with buffer A containing 0.15 M NaCl and the protease eluted by applying 10 column volumes of a linear 0.15 to 0.3 M NaCl gradient. NS3 protease-containing fractions were pooled and diluted to a final NaCl concentration of 0.1 M. The enzyme was further purified on a HiTrap Heparin column (Pharmacia) equilibrated in buffer B (25 mM sodium phosphate, pH 7.5, 10% glycerol, 5 mM DTT, 0.01% NP-40). The sample was loaded at a flow rate of 3 mL/min. The column was then washed with buffer B containing 0.15 M NaCl at a flow rate of 1.5 mL/min. Two step washes were performed in the presence of buffer B containing 0.3 or 1M NaCl. […] Finally, the NS3 protease-containing fractions were applied on a Superdex 75 HiLoad 16/60 column (Pharmacia) equilibrated in buffer B containing 0.3 M NaCl.
The enzyme was stored at -80° C. and was thawed on ice and diluted just prior to use.
Recombinant HCV NS3 Protease/NS4A Cofactor Peptide Radiometric Assay
The enzyme was stored at -80° C., thawed on ice and diluted just prior to use in the assay buffer containing the NS4A cofactor peptide.
The substrate used for the NS3 protease/[…] cofactor peptide radiometric assay, DDIVPC-SMSYTW, is cleaved between the cysteine and the serine residues by the enzyme. The sequence DDIVPC-SMSYTW corresponds to the NS5A/NS5B natural cleavage site in which the cysteine residue in […] has been substituted for a proline. […] (molar ratio enzyme: cofactor 1:100) in the absence or presence of inhibitors. The separation of substrate from products is performed by adding avidin-coated agarose beads to the assay mixture followed by filtration.
Assay buffer: 50 mM Tris HCl, pH 7.5, 30% (w/v) glycerol, 1 mg/mL BSA, 1 mM TCEP (TCEP added just prior to use from a 1 M stock solution in water)
Substrate: […], […] final concentration (from a 2 mM stock solution in DMSO stored at -20° C. to avoid oxidation).

[2] = target: T2, human leukocyte elastase (Homo sapiens, UniProt P08246); assay: Specificity assay, human leukocyte elastase (pNA substrate); type: biochemical
T2 sequence (P08246 30-267): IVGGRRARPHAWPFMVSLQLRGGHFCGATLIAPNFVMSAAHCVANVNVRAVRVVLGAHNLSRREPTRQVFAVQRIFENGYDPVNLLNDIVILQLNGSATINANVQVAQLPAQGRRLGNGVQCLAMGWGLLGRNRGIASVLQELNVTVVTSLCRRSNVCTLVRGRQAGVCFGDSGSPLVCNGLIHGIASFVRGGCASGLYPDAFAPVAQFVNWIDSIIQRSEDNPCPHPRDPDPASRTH
Description: The specificity of the compounds was determined against a variety of serine proteases: human leukocyte elastase, porcine pancreatic elastase and bovine pancreatic α-chymotrypsin and one cysteine protease: human liver cathepsin B. In all cases a 96-well plate format protocol using a […] p-nitroanilide (pNA) substrate specific for each enzyme was used. Each assay included a 1 h enzyme-inhibitor pre-incubation at 30° C. followed by addition of substrate and hydrolysis to ≈30% conversion as measured on a UV Thermomax® microplate reader. Substrate concentrations were kept as low as possible compared to KM to reduce substrate competition. […] The final conditions for each assay were as follows:
(§1) 50 mM Tris-HCl pH 8, 0.5 M Na2 SO4, 50 mM NaCl, 0.1 mM EDTA, 3% DMSO, 0.01% Tween-20 with;
All other specificity assays were performed in a similar fashion.
(§2) The percentage of inhibition was calculated using the formula:
(§3) [1-(UVinh -UVblank)/(UVctl -UVblank))]×100

[3] = target: porcine pancreatic elastase (Sus scrofa, UniProt P00772); assay: Specificity assay, porcine pancreatic elastase (pNA substrate); type: biochemical
Description: The specificity of the compounds was determined against a variety of serine proteases: human leukocyte elastase, porcine pancreatic elastase and bovine pancreatic α-chymotrypsin and one cysteine protease: human liver cathepsin B. In all cases a 96-well plate format protocol using a calorimetric p-nitroanilide (pNA) substrate specific for each enzyme was used. Each assay included a 1 h enzyme-inhibitor pre-incubation at 30° C. followed by addition of substrate and hydrolysis to ≈30% conversion as measured on a UV Thermomax® microplate reader. Substrate concentrations were kept as low as possible compared to KM to reduce substrate competition. […] The final conditions for each assay were as follows:
A representative example is summarized below for porcine pancreatic elastase:
In a polystyrene flat-bottom 96-well plate were added using a Biomek liquid handler (Beckman):
40 μL of assay buffer (50 mM Tris-HCl pH 8, 50 mM NaCl, 0.1 mM EDTA);
20 μL of enzyme solution (50 mM Tris-HCl pH 8, 50 mM NaCl, 0.1 mM EDTA, 0.02% Tween-20, 40 nM porcine pancreatic elastase); and

[4] = target: bovine pancreatic α-chymotrypsin (Bos taurus, UniProt P00766, DEL14-15/DEL147-148); assay: Specificity assay, bovine pancreatic α-chymotrypsin (pNA substrate); type: biochemical; settings: 1 h enzyme-inhibitor pre-incubation at 30° C., Succ-AAPF-pNA
Description: The final conditions for each assay were as follows:
as §1, §2, §3

[5] = test system: HCV; settings: as described in WO 97/06804; cited from earlier work
[6] = target: NS3 protease (Hepatitis C virus genotype 1b, UniProt P26663); assay: Inhibition of NS3 protease by N-terminal cleavage product; type: biochemical; settings: N-terminal cleavage product of an analogue of a natural substrate
[7] = target: human liver cathepsin B (Homo sapiens, UniProt P07858); assay: biochemical
Description: The specificity of the compounds was determined against a variety of serine proteases: human leukocyte elastase, porcine pancreatic elastase and bovine pancreatic α-chymotrypsin and one cysteine protease: human liver cathepsin B. In all cases a 96-well plate format protocol using a calorimetric p-nitroanilide (pNA) substrate specific for each enzyme was used. Each assay included a 1 h enzyme-inhibitor pre-incubation at 30° C. followed by addition of substrate and hydrolysis to ≈30% conversion as measured on a UV Thermomax® microplate reader. Substrate concentrations were kept as low as possible compared to KM to reduce substrate competition.

[8] = 1 h enzyme-inhibitor pre-incubation at 30° C., Succ-AAV-pNA
[9] = 1 h enzyme-inhibitor pre-incubation at 30° C., Succ-AAA-pNA

Sequence of porcine pancreatic elastase (P00772 27-266): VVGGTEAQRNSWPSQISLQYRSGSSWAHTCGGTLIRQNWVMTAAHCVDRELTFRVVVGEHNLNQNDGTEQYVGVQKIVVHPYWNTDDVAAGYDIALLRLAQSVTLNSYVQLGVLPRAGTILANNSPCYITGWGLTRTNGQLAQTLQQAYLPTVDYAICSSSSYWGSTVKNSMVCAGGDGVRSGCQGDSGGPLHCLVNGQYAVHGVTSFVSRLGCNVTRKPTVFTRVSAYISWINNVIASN
T1 sequence (P26663 1027-1206, other chains not shown): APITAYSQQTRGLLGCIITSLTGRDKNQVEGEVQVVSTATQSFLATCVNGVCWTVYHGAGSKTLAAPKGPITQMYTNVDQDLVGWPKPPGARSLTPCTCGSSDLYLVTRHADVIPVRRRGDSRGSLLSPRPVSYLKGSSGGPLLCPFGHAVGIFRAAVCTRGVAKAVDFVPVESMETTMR
Sequence of NS3 protease (P26663 1027-1206): as the sequence (P26663 1027-1206, other chains not shown) above

Molecule | IC50 [1] | IC50 [2, 8] | further results
CCC[C@H](NC(=O)[C@@H]1C[C@@H](OCc2ccccc2)CN1C(=O)[C@@H](NC(=O)[C@@H](NC(=O)[C@@H](CCC(=O)O)NC(=O)[C@H](CC(=O)O)NC(C)=O)[C@@H](C)CC)C(C)C)C(=O)N[C@@H](C)c1ccccc1 [Compound 108] (Ac-D[dE]IV[Hyp](Bn)[Nva]-{NH(1S-phenylethyl)}) | 0.71 µM | 3 µM | IC50 [3, 9]: > 300 µM; IC50 [4]: > 300 µM
CCCC(NC(=O)[C@@H]1C[C@@H](OCc2ccccc2)CN1C(=O)[C@@H](NC(=O)[C@@H](NC(C)=O)C1CCCCC1)C(C)C)C(=O)C(=O)NCc1ccccc1 (stereo partly drawn) [Compound 109] | 23 µM | 2 µM | –
CCCC(C=O)NC(=O)[C@@H]1C[C@@H](OCc2ccccc2)CN1C(=O)[C@@H](NC(=O)[C@@H](NC(=O)[C@@H](CCC(=O)O)NC(=O)[C@H](CC(=O)O)NC(C)=O)[C@@H](C)CC)C(C)C (stereo partly drawn) [Compound 104] (Ac-D[dE]IV[Hyp](Bn)[ξNva]-aldehyde) | 0.14 µM | 7 µM | IC50 [3, 9]: 8 µM; IC50 [4]: 8 µM
CCCN(NC(=O)[C@@H]1C[C@@H](OCc2ccccc2)CN1C(=O)[C@@H](NC(=O)[C@@H](NC(=O)[C@@H](CCC(=O)O)NC(=O)[C@H](CC(=O)O)NC(C)=O)[C@@H](C)CC)C(C)C)C(=O)NCC(=O)OCC [Compound 201] (Ac-D[dE]IV[Hyp](Bn)[azaNva]G-OEt) | 3.9 µM | 27.4 µM | IC50 [3, 9]: 168 µM
CC[C@H](C)[C@H](NC(=O)[C@@H](CCC(=O)O)NC(=O)[C@H](CC(=O)O)NC(C)=O)C(=O)N[C@H](C(=O)N1C[C@H](OCc2ccccc2)C[C@H]1C(=O)NN(C)C(=O)N[C@@H](C)c1ccccc1)C(C)C [Compound 221] (Ac-D[dE]IV[Hyp](Bn)[AzaAla]-{NH(1S-phenylethyl)}) | 0.52 µM | 168 µM | –
CCCN(NC(=O)[C@@H]1C[C@@H](OCc2ccccc2)CN1C(=O)[C@@H](NC(=O)[C@@H](NC(C)=O)C1CCCCC1)C(C)C)C(=O)N[C@@H](C)c1ccccc1 [Compound 215] | 45 µM | 5 µM | –
CCCN(NC(=O)[C@@H]1C[C@@H](OCc2ccccc2)CN1C(=O)[C@@H](NC(=O)[C@@H](NC(=O)[C@@H](CCC(=O)O)NC(=O)[C@H](CC(=O)O)NC(C)=O)[C@@H](C)CC)C(C)C)C(=O)OCc1ccccc1 [Compound 206] (Ac-D[dE]IV[Hyp](Bn)-X2) | 0.79 µM | < 0.6 µM | IC50 [3, 9]: < 0.6 µM
CCCCCN(NC(=O)[C@@H]1C[C@@H](OCc2ccccc2)CN1C(=O)[C@@H](NC(=O)[C@@H](NC(=O)[C@@H](CCC(=O)O)NC(=O)[C@H](CC(=O)O)NC(C)=O)[C@@H](C)CC)C(C)C)C(=O)N[C@@H](C)c1ccccc1 [Compound 219] (Ac-D[dE]IV[Hyp](Bn)[X7]-{NH(1S-phenylethyl)}) | 0.43 µM | 151 µM | –
CCCN(NC(=O)[C@@H]1C[C@@H](OCc2ccccc2)CN1C(=O)[C@@H](NC(=O)[C@@H](NC(=O)[C@@H](CCC(=O)O)NC(=O)[C@H](CC(=O)O)NC(C)=O)[C@@H](C)CC)C(C)C)C(=O)CCc1ccccc1 [Compound 202] (Ac-D[dE]IV[Hyp](Bn)-X5) | 0.63 µM | 5.5 µM | –
CCCC(NC(=O)[C@@H]1C[C@@H](OCc2ccccc2)CN1C(=O)[C@@H](NC(=O)[C@@H](NC(=O)[C@@H](CCC(=O)O)NC(=O)[C@H](CC(=O)O)NC(C)=O)[C@@H](C)CC)C(C)C)C(=O)CCc1ccccc1 (stereo partly drawn) [Compound 106] (Ac-D[dE]IV[Hyp](Bn)-X6) | 5.4 µM | – | IC50 [2]: 16 µM
CCC(NC(=O)[C@@H]1C[C@@H](OCc2ccccc2)CN1C(=O)[C@@H](NC(=O)[C@@H](NC(=O)[C@@H](CCC(=O)O)NC(=O)[C@H](CC(=O)O)NC(C)=O)[C@@H](C)CC)C(C)C)C(=O)C(F)(F)F (stereo partly drawn) [Compound 101] (Ac-D[dE]IV[Hyp](Bn)[ξAbu]-CF3) | 9.4 µM | < 1.2 µM | –
Nc1ccn([C@@H]2CS[C@H](CO)O2)c(=O)n1 (single isomer, unassigned) [3TC, (-) enantiomer of the nucleoside analogue cytosine-1,3-oxathiolane] | – | – | active against HCV [5]: active against HCV
Ac-DDIVPC-OH [Ac-D-D-I-V-P-C-OH] | – | – | inhibitory to the NS3 protease [6]: inhibitory
CCCC(NC(=O)[C@@H]1C[C@@H](OCc2ccccc2)CN1C(=O)[C@@H](NC(=O)[C@@H](NC(=O)[C@@H](CCC(=O)O)NC(=O)[C@H](CC(=O)O)NC(C)=O)[C@@H](C)CC)C(C)C)P(=O)(Oc1ccccc1)Oc1ccccc1 (single isomer, unassigned) [Compound 301] | – | – | IC50 ([1]; IC50: concentration required to obtain 50% inhibition in the NS3 protease/NS4A cofactor peptide radiometric assay, enzyme:cofactor 1:100, 40 min at 23° C.): 0.029 µM; IC50 [2]: < 0.6 µM; IC50 [3]: < 0.6 µM; IC50 [4]: 3 µM; IC50 [7]: > 300 µM
CCCN(NC(=O)[C@@H]1C[C@@H](OCc2ccccc2)CN1C(=O)[C@@H](NC(=O)[C@@H](NC(C)=O)C1CCCCC1)C(C)C)C(=O)C(=O)O [Compound 227] | 39.5 µM | – | –
